Measured values reported in a melting point compilation (Tetko et al.).

| SMILES | melting point [°C] |
| --- | --- |
| COc1ccc2cc(C=O)c(Cl)nc2c1 | 84 to 86 |
| Cc1cc(=O)n(CC(=O)NC(C)C)c(C)c1C(=O)O | 229 to 231 |
| Cn1c(CCl)nc2ccccc2c1=O | 179 to 181 |
| CC1C(=O)NCCN1C(=O)c1cccs1 (configuration not stated) | 129 to 131 |
| Cc1nn(C)c(C)c1CC(C)C(=O)O (configuration not stated) | 125 to 127 |
| Cc1ccc(-n2nc(C(=O)O)c3ccccc3c2=O)cc1Cl | 227 to 229 |
| CCN(CC)c1ccc([N+](=O)[O-])cc1C(=O)O | 184 to 186 |
| CN(C)Cc1ccc(C(=O)O)cc1 | 239 to 241 |
| O=S(=O)(CCN1CCNCC1)c1ccc(Br)cc1 | 99 to 101 |
| Cc1nc(CNc2ccc(F)cc2)cs1 | 76 to 78 |
| NC(=O)c1ccc(Cl)nn1 | 239 to 241 |
| NCc1cccc(CS(N)(=O)=O)c1 | 142 to 144 |
| NCc1cccc(NC(=O)c2ccccn2)c1 | 74 to 76 |
| CC(=O)N1CCC(CCC(=O)O)CC1 | 119 to 121 |
| O=C(O)c1cccc2[nH]ccc12 | 213 to 214 |
| NCc1ccccc1CN1CCN(c2ccccc2)CC1 | 86 to 88 |
| NC(=O)C(O)C1CC1 (configuration not stated) | 115 to 117 |
| O=C(O)/C=C/c1cccc(OCc2ccccc2)c1 | 151 to 153 |
| Nc1ccc(C(=O)NCc2ccccc2F)cc1 | 95 to 97 |
| CCOc1ccc(S(N)(=O)=O)cc1Br | 139 to 141 |
| COc1cccc2[nH]cc(CCN)c12 | 119 to 121 |
| CC(C)C(C(N)=O)c1cccnc1 (configuration not stated) | 176 to 178 |
| O=C(O)CC(c1ccccc1)N1CCOC1=O (configuration not stated) | 123 to 125 |
| Cc1ccc(-n2c(C)c(Br)c3c2CCCC3=O)cc1 | 139 to 141 |

| SMILES | melting point [°C] |
| --- | --- |
| CN(C(=O)OC(C)(C)C)c1ccc(O)cc1 | 133 to 135 |
| COC(=O)c1cc(C(=O)O)n(-c2ccccc2)n1 | 161 to 163 |
| COc1ncccc1C(N)=S | 114 to 116 |
| N#Cc1cccnc1Oc1ccccc1N | 171 to 173 |
| O=C(O)C1(O)CCC1 | 39 to 41 |
| Clc1noc(-c2ccsc2)n1 | 108 to 110 |
| NS(=O)(=O)c1ccc(N2CCOCC2)c(C(=O)O)c1 | 277 to 279 |
| O=C(O)C1=CCCS1 | 126 to 128 |
| COc1cc2[nH]nnc2cc1C(=O)O | 219 to 221 |
| CC(C)(C)Oc1ccc(C(=O)O)cn1 | 139 to 141 |
| Nc1nnc(-c2ccc(Br)c(F)c2)s1 | 219 to 221 |
| Cc1ccc(S(=O)(=O)Nc2ccc(N)cc2)cc1 | 183 to 185 |
| COC(=O)c1cc(NS(=O)(=O)c2cccs2)cc(NS(=O)(=O)c2cccs2)c1 | 251 to 253 |
| Nc1ccc(CC(=O)N2CCCC2)cc1 | 107 to 109 |
| O=C1NCCc2c(Br)cccc21 | 109 to 111 |
| Cc1nc(N2CCNCC2)sc1C | 72 to 74 |
| CC(C)(O)c1ccc2[nH]ccc2c1 | 110 to 112 |
| O=C(O)c1ccc(S(=O)(=O)Nc2ccccc2F)cc1 | 266 to 268 |
| O=C(O)/C=C/c1cnn(Cc2ccccc2)c1 | 118 to 120 |
| N=c1[nH]cc(S(=O)(=O)O)cc1[N+](=O)[O-] | 317 to 319 |
| N#Cc1ccc(Br)cc1C(F)(F)F | 35 to 37 |
| Cc1nn(CCO)c(C(F)F)c1C(=O)O | 148 to 150 |
| COc1ccc(NC(=O)OCC(F)(F)F)cc1 | 79 to 81 |
| CCc1sc(C(=O)NNC(=O)CCl)cc1C | 160 to 162 |

| SMILES | melting point [°C] |
| --- | --- |
| CC(=O)N1Cc2ccc(N)cc2C1 | 169 to 171 |
| O=C(O)c1nnn(-c2ccc(Br)cc2)c1C1CC1 | 176 to 178 |
| NS(=O)(=O)NCc1ccccc1 | 107 to 109 |
| CC(C)(C)c1nnc(S)n1N | 185 to 189 |
| CC1CCC(N2CC(C(=O)O)CC2=O)CC1 (configuration not stated) | 143 to 145 |
| CC(C)(N)c1nnn[nH]1 | 251 to 253 |
| O=C(O)c1cc(Br)c[nH]1 | 169 to 171 |
| O=C(O)c1cn(Cc2ccccn2)nn1 | 179 to 181 |
| COc1ccc(C(=O)c2ccccc2C(=O)O)cc1F | 147 to 149 |
| Nc1ccc(N2CCSCC2)c(Cl)c1 | 101 to 103 |
| COc1ccc(-c2cc(C(=O)O)nn2-c2ccccc2)cc1 | 198 to 200 |
| O=C1NCCC1c1ccccc1 (configuration not stated) | 82 to 84 |
| Cc1ccnc(-n2cc(S(N)(=O)=O)cn2)c1 | 156 to 158 |
| CC(C)CC(N)c1nc(-c2nnc[nH]2)no1 (configuration not stated) | 203 to 205 |
| CC(=O)Nc1cc2c(cc1C)OCO2 | 164 to 166 |
| COCCNS(=O)(=O)c1ccc(C#N)cc1 | 88 to 90 |
| Cc1oc(-c2ccco2)nc1CC(=O)O | 176 to 178 |
| CC(O)C1CCCCN1C(=O)OC(C)(C)C (configuration not stated) | 46 to 48 |
| COc1ccc(-c2cnnc(N)n2)cc1 | 246 to 248 |
| Cc1nc(-c2cccc(N)c2)oc1C | 104 to 106 |
| CN(C)C(=O)c1ccc(C(=O)O)cc1 | 178 to 180 |
| Clc1ccc2c(Cl)ncnc2c1 | 136 to 138 |
| CNC1CCS(=O)(=O)c2ccc(Br)cc21 (configuration not stated) | 108 to 110 |
| O=C(O)CCc1ccnc2ccccc12 | 197 to 199 |
